How the values were obtained:
Assay in all cases: biochemical
PASK = PASK (Homo sapiens, UniProt Q96RG2)
In short: (§1)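 Reactions at room temperature in HEPES buffer (20 mM, pH 7.5, 0.01% Triton X-100, 2 mM DTT) lasted 1 or 5 h depending on kinase, with substrate peptide and ATP-metal. Phosphorylation read by electrophoretic mobility shift or IMAP polarization; kinase activity computed as P/(P + S).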

EGFR = EGFR (Homo sapiens, UniProt P00533)
In short: as §1

TAOK2 = TAOK2 (Homo sapiens, UniProt Q9UL54)
In short: as §1

PKD2 = molecular target: T1, PKD2 (Homo sapiens, UniProt Q9BZL6)
T1 construct: gene PRKD2
In short: as §1

CaMK2δ = molecular target: T2, CaMK2δ (Homo sapiens, UniProt Q13557)
T2 construct: gene CAMK2D
In short: as §1

ALK(F1174L) = ALK(F1174L) (Homo sapiens, UniProt Q9UM73, F1174L)
In short: as §1

EGFR(T790M) = EGFR(T790M) (Homo sapiens, UniProt P00533, T790M)
In short: as §1

TRKC = molecular target: T3, TRKC (Homo sapiens, UniProt Q16288)
T3 construct: gene NTRK3
In short: as §1

DCAMKL2 = molecular target: T4, DCAMKL2 (Homo sapiens, UniProt Q8N568)
T4 construct: gene DCLK2
In short: as §1

p70S6Kβ = molecular target: T5, p70S6Kβ (Homo sapiens, UniProt Q9UBS0)
T5 construct: gene RPS6KB2
In short: as §1

PKCα = molecular target: T6, PKCα (Homo sapiens, UniProt P17252)
T6 construct: gene PRKCA
In short: as §1

PKCγ = molecular target: T7, PKCγ (Homo sapiens, UniProt P05129)
T7 construct: gene PRKCG
In short: as §1

MET = MET (Homo sapiens, UniProt P08581)
In short: as §1

MET(Y1235D) = MET(Y1235D) (Homo sapiens, UniProt P08581, Y1235D)
In short: as §1

MNK1 = molecular target: T8, MNK1 (Homo sapiens, UniProt Q9BUB5)
T8 construct: gene MKNK1
In short: as §1

JAK3 = JAK3 (Homo sapiens, UniProt P52333)
In short: as §1

BRSK1 = BRSK1 (Homo sapiens, UniProt Q8TDC3)
In short: as §1

LYNb = molecular target: T9, LYNb (Homo sapiens, UniProt P07948)
T9 construct: gene LYN; isoform b
In short: as §1

PKACβ = molecular target: T10, PKACβ (Homo sapiens, UniProt P22694)
T10 construct: gene PRKACB
In short: as §1

RET(M918T) = RET(M918T) (Homo sapiens, UniProt P07949, M918T)
In short: as §1

MAP4K2 = MAP4K2 (Homo sapiens, UniProt Q12851)
In short: as §1

FAK = molecular target: T11, FAK (Homo sapiens, UniProt Q05397)
T11 construct: gene PTK2
In short: as §1

YES(T348I) = molecular target: T12, YES(T348I) (Homo sapiens, UniProt P07947, T348I)
T12 construct: gene YES1
In short: as §1

CK1ε = molecular target: T13, CK1ε (Homo sapiens, UniProt P49674)
T13 construct: gene CSNK1E
In short: as §1

PKCβ1 = molecular target: T14, PKCβ1 (Homo sapiens, UniProt P05771)
T14 construct: gene PRKCB; isoform beta 1
In short: as §1

CaMK4 = CaMK4 (Homo sapiens, UniProt Q16566)
In short: as §1

PHKG1 = PHKG1 (Homo sapiens, UniProt Q16816)
In short: as §1

TYK2 = TYK2 (Homo sapiens, UniProt P29597)
In short: as §1

PLK2 = PLK2 (Homo sapiens, UniProt Q9NYY3)
In short: as §1

EPHB3 = EPHB3 (Homo sapiens, UniProt P54753)
In short: as §1

T12 sequence (P07947 whole entry T348I): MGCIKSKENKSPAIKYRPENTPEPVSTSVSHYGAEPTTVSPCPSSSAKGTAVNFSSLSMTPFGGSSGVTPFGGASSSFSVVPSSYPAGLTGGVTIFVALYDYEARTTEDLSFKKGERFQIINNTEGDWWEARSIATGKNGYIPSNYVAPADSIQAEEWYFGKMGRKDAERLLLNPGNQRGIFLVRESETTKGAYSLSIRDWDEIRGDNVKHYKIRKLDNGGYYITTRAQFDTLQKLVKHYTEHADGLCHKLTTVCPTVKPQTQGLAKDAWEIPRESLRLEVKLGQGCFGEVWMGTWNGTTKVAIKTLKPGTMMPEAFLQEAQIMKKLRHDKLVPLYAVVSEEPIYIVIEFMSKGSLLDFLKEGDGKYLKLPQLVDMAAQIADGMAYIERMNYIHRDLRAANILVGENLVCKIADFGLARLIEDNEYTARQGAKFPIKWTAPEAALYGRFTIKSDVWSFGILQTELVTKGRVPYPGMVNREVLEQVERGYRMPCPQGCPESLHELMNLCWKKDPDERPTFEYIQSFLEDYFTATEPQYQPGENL
T8 sequence (Q9BUB5 whole entry): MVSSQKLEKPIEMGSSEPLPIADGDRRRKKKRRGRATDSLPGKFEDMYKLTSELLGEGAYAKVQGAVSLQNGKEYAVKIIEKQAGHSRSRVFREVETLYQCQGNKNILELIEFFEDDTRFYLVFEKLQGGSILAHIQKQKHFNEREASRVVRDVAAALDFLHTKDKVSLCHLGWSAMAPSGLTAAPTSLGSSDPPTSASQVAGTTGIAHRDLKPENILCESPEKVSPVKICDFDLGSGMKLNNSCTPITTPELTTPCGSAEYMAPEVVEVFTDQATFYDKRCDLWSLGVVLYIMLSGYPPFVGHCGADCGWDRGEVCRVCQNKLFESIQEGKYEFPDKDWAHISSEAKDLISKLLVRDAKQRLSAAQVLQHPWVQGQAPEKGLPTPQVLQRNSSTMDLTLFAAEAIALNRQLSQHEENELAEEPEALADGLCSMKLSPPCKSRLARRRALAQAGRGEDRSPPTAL
Sequence of EPHB3 (P54753 whole entry): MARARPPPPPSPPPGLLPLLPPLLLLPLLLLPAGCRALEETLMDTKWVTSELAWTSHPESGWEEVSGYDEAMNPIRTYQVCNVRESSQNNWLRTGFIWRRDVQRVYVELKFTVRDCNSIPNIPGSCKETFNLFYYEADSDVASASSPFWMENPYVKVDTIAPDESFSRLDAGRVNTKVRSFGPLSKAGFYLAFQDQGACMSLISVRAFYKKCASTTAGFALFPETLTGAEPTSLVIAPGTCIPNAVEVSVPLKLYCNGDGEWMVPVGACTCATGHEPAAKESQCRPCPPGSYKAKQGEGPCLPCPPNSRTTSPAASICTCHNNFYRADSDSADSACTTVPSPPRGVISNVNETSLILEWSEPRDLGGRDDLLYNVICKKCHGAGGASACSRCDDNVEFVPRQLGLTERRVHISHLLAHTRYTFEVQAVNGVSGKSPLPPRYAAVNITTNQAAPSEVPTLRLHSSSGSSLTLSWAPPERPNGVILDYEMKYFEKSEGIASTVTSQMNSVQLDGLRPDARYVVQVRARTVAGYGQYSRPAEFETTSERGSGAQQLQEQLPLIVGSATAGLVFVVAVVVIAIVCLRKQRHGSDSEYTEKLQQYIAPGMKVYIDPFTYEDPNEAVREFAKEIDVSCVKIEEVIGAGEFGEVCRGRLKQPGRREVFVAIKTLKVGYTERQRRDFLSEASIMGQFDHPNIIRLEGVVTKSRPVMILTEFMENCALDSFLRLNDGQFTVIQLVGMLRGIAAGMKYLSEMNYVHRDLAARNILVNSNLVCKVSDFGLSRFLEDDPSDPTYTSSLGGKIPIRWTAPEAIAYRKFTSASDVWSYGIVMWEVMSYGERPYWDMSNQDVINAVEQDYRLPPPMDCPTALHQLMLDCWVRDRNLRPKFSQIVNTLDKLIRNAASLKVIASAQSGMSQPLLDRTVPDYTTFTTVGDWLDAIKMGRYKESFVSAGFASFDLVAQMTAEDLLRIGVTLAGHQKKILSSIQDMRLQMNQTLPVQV
Sequence of RET(M918T) (P07949 whole entry M918T): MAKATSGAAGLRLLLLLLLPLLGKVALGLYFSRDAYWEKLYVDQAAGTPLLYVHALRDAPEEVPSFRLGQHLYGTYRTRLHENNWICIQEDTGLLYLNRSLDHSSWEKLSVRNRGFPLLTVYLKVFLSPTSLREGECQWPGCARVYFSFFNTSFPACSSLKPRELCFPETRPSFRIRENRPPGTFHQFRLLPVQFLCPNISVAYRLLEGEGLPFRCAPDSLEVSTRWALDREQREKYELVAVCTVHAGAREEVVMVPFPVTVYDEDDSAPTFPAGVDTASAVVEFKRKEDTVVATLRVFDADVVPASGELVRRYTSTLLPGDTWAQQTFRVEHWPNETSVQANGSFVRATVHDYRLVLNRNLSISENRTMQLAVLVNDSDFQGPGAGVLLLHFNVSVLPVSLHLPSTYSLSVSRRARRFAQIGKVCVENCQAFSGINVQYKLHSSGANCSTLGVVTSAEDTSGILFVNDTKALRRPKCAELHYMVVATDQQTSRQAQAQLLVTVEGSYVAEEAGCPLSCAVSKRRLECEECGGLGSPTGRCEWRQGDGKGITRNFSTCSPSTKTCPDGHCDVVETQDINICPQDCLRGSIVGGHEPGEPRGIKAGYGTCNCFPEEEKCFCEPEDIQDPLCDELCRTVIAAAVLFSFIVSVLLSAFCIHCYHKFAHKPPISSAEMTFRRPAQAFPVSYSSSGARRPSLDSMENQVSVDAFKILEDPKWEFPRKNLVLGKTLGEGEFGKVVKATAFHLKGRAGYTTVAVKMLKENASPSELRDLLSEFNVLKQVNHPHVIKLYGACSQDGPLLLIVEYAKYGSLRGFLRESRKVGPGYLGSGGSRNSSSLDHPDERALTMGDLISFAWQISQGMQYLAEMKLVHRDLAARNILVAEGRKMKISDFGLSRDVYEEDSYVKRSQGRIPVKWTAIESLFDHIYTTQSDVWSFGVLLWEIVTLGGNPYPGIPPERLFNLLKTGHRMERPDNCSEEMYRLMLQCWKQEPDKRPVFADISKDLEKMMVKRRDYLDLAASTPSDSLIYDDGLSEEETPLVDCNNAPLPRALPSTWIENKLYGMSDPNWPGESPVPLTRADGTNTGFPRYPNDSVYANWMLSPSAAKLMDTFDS
Sequence of CaMK4 (Q16566 whole entry): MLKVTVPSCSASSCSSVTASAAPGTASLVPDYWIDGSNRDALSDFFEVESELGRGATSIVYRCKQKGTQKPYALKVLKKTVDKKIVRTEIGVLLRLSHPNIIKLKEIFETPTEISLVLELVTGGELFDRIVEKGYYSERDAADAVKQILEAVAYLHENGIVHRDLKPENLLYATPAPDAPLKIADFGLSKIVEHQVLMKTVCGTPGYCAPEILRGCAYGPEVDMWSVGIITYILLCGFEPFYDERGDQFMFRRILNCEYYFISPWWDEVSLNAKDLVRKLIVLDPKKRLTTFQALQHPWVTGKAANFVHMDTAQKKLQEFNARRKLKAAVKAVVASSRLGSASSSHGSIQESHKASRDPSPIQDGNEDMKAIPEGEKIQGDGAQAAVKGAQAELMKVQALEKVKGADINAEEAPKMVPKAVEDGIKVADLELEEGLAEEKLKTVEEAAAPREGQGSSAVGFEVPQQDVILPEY
T5 sequence (Q9UBS0 whole entry): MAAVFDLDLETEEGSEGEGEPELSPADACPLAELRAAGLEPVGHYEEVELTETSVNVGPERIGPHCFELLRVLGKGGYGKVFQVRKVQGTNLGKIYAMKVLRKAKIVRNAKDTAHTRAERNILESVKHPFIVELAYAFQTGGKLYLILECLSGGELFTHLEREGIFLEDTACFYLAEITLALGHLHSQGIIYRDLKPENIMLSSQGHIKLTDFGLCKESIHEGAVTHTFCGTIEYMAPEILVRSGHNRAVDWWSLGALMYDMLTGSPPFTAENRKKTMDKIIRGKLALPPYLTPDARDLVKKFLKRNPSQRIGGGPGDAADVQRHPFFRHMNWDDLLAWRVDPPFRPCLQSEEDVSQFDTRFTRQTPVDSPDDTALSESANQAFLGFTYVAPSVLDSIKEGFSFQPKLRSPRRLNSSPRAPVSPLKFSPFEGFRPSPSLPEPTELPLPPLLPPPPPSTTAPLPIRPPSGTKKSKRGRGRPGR
Sequence of PHKG1 (Q16816 whole entry): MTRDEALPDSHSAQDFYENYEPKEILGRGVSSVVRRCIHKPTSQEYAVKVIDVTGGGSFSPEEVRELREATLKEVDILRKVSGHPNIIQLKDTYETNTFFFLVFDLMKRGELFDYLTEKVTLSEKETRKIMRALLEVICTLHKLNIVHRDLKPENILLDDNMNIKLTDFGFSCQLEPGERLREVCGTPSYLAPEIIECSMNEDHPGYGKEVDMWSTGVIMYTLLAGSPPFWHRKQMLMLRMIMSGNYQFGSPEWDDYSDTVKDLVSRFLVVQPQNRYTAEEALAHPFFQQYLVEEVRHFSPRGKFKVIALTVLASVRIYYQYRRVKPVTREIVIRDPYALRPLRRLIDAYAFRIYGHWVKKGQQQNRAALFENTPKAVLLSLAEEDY
T13 sequence (P49674 whole entry): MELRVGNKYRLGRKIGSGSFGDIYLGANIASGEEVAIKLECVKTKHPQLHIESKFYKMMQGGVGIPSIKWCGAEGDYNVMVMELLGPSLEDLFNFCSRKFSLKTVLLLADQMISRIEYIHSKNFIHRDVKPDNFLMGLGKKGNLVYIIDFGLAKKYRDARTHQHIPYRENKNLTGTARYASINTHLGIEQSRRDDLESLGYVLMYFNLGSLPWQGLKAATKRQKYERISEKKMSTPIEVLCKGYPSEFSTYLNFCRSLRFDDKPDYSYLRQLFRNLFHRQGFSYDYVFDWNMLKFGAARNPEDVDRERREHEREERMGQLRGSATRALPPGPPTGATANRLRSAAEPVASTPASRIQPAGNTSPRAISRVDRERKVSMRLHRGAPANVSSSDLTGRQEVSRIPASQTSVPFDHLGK

## c1cc(-c2ccc3[nH]ncc3c2)ccn1 [TG693, 5-(4-pyridinyl)-1H-indazole]
PASK
  inhibition at 1 µM: 14.7%
EGFR
  inhibition at 1 µM: -10.7%
TAOK2
  inhibition at 1 µM: 2%
PKD2
  inhibition at 1 µM: 5.4%
CaMK2δ
  inhibition at 1 µM: 1.4%
ALK(F1174L)
  inhibition at 1 µM: -6.9%
EGFR(T790M)
  inhibition at 1 µM: -0.2%
TRKC
  inhibition at 1 µM: 7.7%
DCAMKL2
  inhibition at 1 µM: 9.6%
p70S6Kβ
  inhibition at 1 µM: 18.7%
PKCα
  inhibition at 1 µM: -5.4%
PKCγ
  inhibition at 1 µM: -11.4%
MET
  inhibition at 1 µM: 13.2%
MET(Y1235D)
  inhibition at 1 µM: -2%
MNK1
  inhibition at 1 µM: 45.7%
JAK3
  inhibition at 1 µM: 11.6%
BRSK1
  inhibition at 1 µM: 1.1%
LYNb
  inhibition at 1 µM: 0.8%
PKACβ
  inhibition at 1 µM: 3.1%
RET(M918T)
  inhibition at 1 µM: -2.6%
MAP4K2
  inhibition at 1 µM: 1.9%
FAK
  inhibition at 1 µM: 3.6%
YES(T348I)
  inhibition at 1 µM: -1.4%
CK1ε
  inhibition at 1 µM: 8%
PKCβ1
  inhibition at 1 µM: -11.4%
CaMK4
  inhibition at 1 µM: 0.5%
PHKG1
  inhibition at 1 µM: 0%
TYK2
  inhibition at 1 µM: 0.6%
PLK2
  inhibition at 1 µM: 2.9%
EPHB3
  inhibition at 1 µM: -0.5%

From PMC5448077, “Development of an orally available inhibitor of CLK1 for skipping a mutated dystrophin exon in Duchenne muscular dystrophy” (Scientific Reports, 2017)
